Measurements from ChEMBL document CHEMBL5512674, “Novel Acyl Thiourea-Based Hydrophobic Tagging Degraders Exert Potent Anti-Influenza Activity through Two Distinct Endonuclease Polymerase Acidic-Targeted Degradation Pathways” (J Med Chem, 2024).
Calls of active or inactive are those of the source. The rule behind the calls is not given here.

What was measured:
[1] = Cytotoxicity against dog MDCK cells assessed as reduction in cell viability incubated for 48 hrs by CCK-8 assay; assay type: toxicity, cell-based, Canis lupus familiaris
Influenza A virus [2] = experiment: Anti-influenza activity against Influenza A virus A/WSN/33(H1N1) infected in MDCK cells assessed as downregulation of nucleoprotein expression at 100 nM incubated for 24 hrs by Western blotting analysis relative to control; assay type: functional
[3] = molecular target: T1, von Hippel-Lindau disease tumor suppressor/Polymerase acidic protein (Influenza A virus (A/Puerto Rico/8/1934(H1N1))) (UniProt P03433+P40337); experiment: PROTAC activity at Influenza A virus A/WSN/33(H1N1) flag tagged Polymerase acidic protein/VHL (unknown origin) expressed in HEK293T cells assessed as degradation of PA expression at 0.02 to 10 uM incubated for 24 hrs by Western blotting analysis; assay type: cell-based; conditions: dose 0.02-10 µM
[4] = Intrinsic clearance in human liver microsomes preincubated for 5 mins followed by NADPH addition and measured for 45 mins by LC-MS analysis; assay type: ADME, Microsome; conditions: time 50 min, read-out: CLH
[5] = Intrinsic clearance in mouse liver microsomes preincubated for 5 mins followed by NADPH addition and measured for 45 mins by LC-MS analysis; assay type: ADME, Microsome; conditions: time 50 min, read-out: CLH
Influenza B virus [6] = experiment: Anti-influenza activity against Influenza B virus Victoria/2/87 infected in HEK293T cells assessed as reduction in virus-induced cytopathic effect incubated for 48 hrs by CCK-8 assay; assay type: functional, organism-based; conditions: Victoria/2/87, HEK-293T
Influenza B virus [7] = experiment: Anti-influenza activity against Influenza B virus Yamagata/16/88 infected in HEK293T cells assessed as reduction in virus-induced cytopathic effect incubated for 48 hrs by CCK-8 assay; assay type: functional, organism-based; conditions: Yamagata/16/88, HEK-293T
[8] = Hepatic extraction ratio in mouse liver microsomes preincubated for 5 mins followed by NADPH addition and measured for 45 mins by LC-MS analysis; assay type: ADME, Microsome; conditions: time 50 min, read-out: ERH
Influenza A virus [9] = experiment: Anti-influenza activity against Influenza A virus A/PR/8/34 (H1N1) infected in MDCK cells assessed as inhibition of viral growth at 1.6 nM incubated for 48 hrs by luciferase assay relative to control; assay type: functional
[10] = Cytotoxicity against human HEK293T cells assessed as reduction in cell viability incubated for 48 hrs by CCK-8 assay; assay type: toxicity, cell-based, HEK-293T
[11] = Stability in human plasma assessed as compound remaining measured after 30 mins by LC-MS/MS analysis; assay type: ADME, cell-free; conditions: read-out: Stability
Influenza A virus [12] = experiment: Anti-influenza activity against Influenza A virus A/PR/8/34 (H1N1) infected in MDCK cells assessed as reduction in virus-induced cytopathic effect incubated for 48 hrs by CCK-8 assay; assay type: functional, organism-based
[13] = Stability in human plasma assessed as compound remaining measured after 120 mins by LC-MS/MS analysis; assay type: ADME, cell-free; conditions: read-out: Stability
[14] = Stability in human plasma assessed as compound remaining measured after 60 mins by LC-MS/MS analysis; assay type: ADME, cell-free; conditions: read-out: Stability
Influenza A virus [15] = experiment: Anti-influenza activity against Influenza A virus H3N2 infected in HEK293T cells assessed as reduction in virus-induced cytopathic effect incubated for 48 hrs by CCK-8 assay; assay type: functional, organism-based; conditions: H3N2, HEK-293T
[16] = Hepatic clearance in human liver microsomes preincubated for 5 mins followed by NADPH addition and measured for 45 mins by LC-MS analysis; assay type: ADME, Microsome; conditions: time 50 min
[17] = Stability in human plasma assessed as compound remaining measured after 5 mins by LC-MS/MS analysis; assay type: ADME, cell-free; conditions: read-out: Stability
[18] = Stability in human plasma assessed as compound remaining measured after 15 mins by LC-MS/MS analysis; assay type: ADME, cell-free; conditions: read-out: Stability
[19] = Hepatic clearance in mouse liver microsomes preincubated for 5 mins followed by NADPH addition and measured for 45 mins by LC-MS analysis; assay type: ADME, Microsome; conditions: time 50 min
Influenza A virus [20] = experiment: Anti-influenza activity against Influenza A virus A/WSN/33(H1N1) infected in HEK293T cells assessed as reduction in virus-induced cytopathic effect incubated for 48 hrs by CCK-8 assay; assay type: functional, organism-based; conditions: HEK-293T
[21] = Half life in mouse liver microsomes preincubated for 5 mins followed by NADPH addition and measured for 45 mins by LC-MS analysis; assay type: ADME, Microsome; conditions: time 50 min
[22] = Binding affinity to Influenza A virus A/WSN/33(H1N1) flag tagged Polymerase acidic protein assessed as dissociation constant incubated for 48 hrs by microscale thermophoresis assay; conditions: hek293t
[23] = Selectivity index, ratio of CC50 for cytotoxicity against human HEK293T cells to EC50 for anti-influenza activity against Influenza A virus A/WSN/33(H1N1) infected in HEK293T cells assessed as reduction in virus-induced cytopathic effect; assay type: toxicity, cell-based; conditions: read-out: Ratio CC50/EC50
[24] = Hepatic clearance in dog liver microsomes preincubated for 5 mins followed by NADPH addition and measured for 45 mins by LC-MS analysis; assay type: ADME, Canis lupus familiaris, Microsome; conditions: time 50 min
[25] = Hepatic extraction ratio in dog liver microsomes preincubated for 5 mins followed by NADPH addition and measured for 45 mins by LC-MS analysis; assay type: ADME, Canis lupus familiaris, Microsome; conditions: time 50 min, read-out: ERH
[26] = Half life in human liver microsomes preincubated for 5 mins followed by NADPH addition and measured for 45 mins by LC-MS analysis; assay type: ADME, Microsome; conditions: time 50 min
[27] = Stability in human plasma assessed as compound remaining by LC-MS/MS analysis; assay type: ADME, cell-free
[28] = Intrinsic clearance in dog liver microsomes preincubated for 5 mins followed by NADPH addition and measured for 45 mins by LC-MS analysis; assay type: ADME, Canis lupus familiaris, Microsome; conditions: time 50 min, read-out: CLH
[29] = Half life in dog liver microsomes preincubated for 5 mins followed by NADPH addition and measured for 45 mins by LC-MS analysis; assay type: ADME, Canis lupus familiaris, Microsome; conditions: time 50 min
[30] = Hepatic extraction ratio in human liver microsomes preincubated for 5 mins followed by NADPH addition and measured for 45 mins by LC-MS analysis; assay type: ADME, Microsome; conditions: time 50 min, read-out: ERH
Influenza A virus [31] = experiment: Anti-influenza activity against Influenza A virus A/WSN/33(H1N1) infected in MDCK cells assessed as downregulation of nucleoprotein expression at 1.56 to 100 nM incubated for 24 hrs by Western blotting analysis; assay type: functional, organism-based; conditions: dose 1.56-100 nM
Influenza A virus [32] = experiment: Anti-influenza activity against Influenza A virus A/PR/8/34 (H1N1) infected in MDCK cells assessed as inhibition of viral growth at 0.8 nM incubated for 48 hrs by luciferase assay relative to control; assay type: functional
Influenza A virus [33] = experiment: Anti-influenza activity against Influenza A virus A/PR/8/34 (H1N1) infected in MDCK cells assessed as inhibition of viral growth incubated for 48 hrs by luciferase assay; assay type: functional, organism-based
[34] = molecular target: T2, von Hippel-Lindau disease tumor suppressor/Polymerase basic protein 2 (Influenza A virus (strain A/Puerto Rico/8/1934 H1N1)) (UniProt P40337+P03428); experiment: PROTAC activity at Influenza A virus A/WSN/33(H1N1) flag tagged Polymerase basic protein 2/VHL (unknown origin) expressed in HEK293T cells assessed as degradation of PB2 expression at 0.1 to 10 uM incubated for 24 hrs by Western blotting analysis; assay type: cell-based; conditions: dose 0.1-10 µM
[35] = molecular target: von Hippel-Lindau disease tumor suppressor/Polymerase acidic protein (Influenza A virus (A/Puerto Rico/8/1934(H1N1)), UniProt P03433+P40337); experiment: PROTAC activity at Influenza A virus A/WSN/33(H1N1) flag tagged Polymerase acidic protein/VHL (unknown origin) expressed in HEK293T cells assessed as degradation of PA expression incubated for 24 hrs by Western blotting analysis; assay type: cell-based
[36] = molecular target: T1, von Hippel-Lindau disease tumor suppressor/Polymerase acidic protein (Influenza A virus (A/Puerto Rico/8/1934(H1N1))); experiment: PROTAC activity at Influenza A virus A/WSN/33(H1N1) flag tagged Polymerase acidic protein/VHL (unknown origin) expressed in HEK293T cells assessed as degradation of PA expression at 10 uM incubated for 24 hrs by Western blotting analysis; assay type: cell-based
[37] = molecular target: T3, von Hippel-Lindau disease tumor suppressor/Polymerase basic protein 1 (Influenza A virus (strain A/Puerto Rico/8/1934 H1N1)) (UniProt P03431+P40337); experiment: PROTAC activity at Influenza A virus A/WSN/33(H1N1) flag tagged Polymerase basic protein 1/VHL (unknown origin) expressed in HEK293T cells assessed as degradation of PB1 expression at 1 ug/ml incubated for 24 hrs by Western blotting analysis; assay type: cell-based; conditions: dose 1.0 µg/ml
[38] = molecular target: T2, von Hippel-Lindau disease tumor suppressor/Polymerase basic protein 2 (Influenza A virus (strain A/Puerto Rico/8/1934 H1N1)); experiment: PROTAC activity at Influenza A virus A/WSN/33(H1N1) flag tagged Polymerase basic protein 2/VHL (unknown origin) expressed in HEK293T cells assessed as degradation of PB2 expression at 1 ug/ml incubated for 24 hrs by Western blotting analysis; assay type: cell-based; conditions: dose 1.0 µg/ml
[39] = molecular target: T2, von Hippel-Lindau disease tumor suppressor/Polymerase basic protein 2 (Influenza A virus (strain A/Puerto Rico/8/1934 H1N1)); experiment: PROTAC activity at Influenza A virus A/WSN/33(H1N1) flag tagged Polymerase basic protein 2/VHL (unknown origin) expressed in HEK293T cells assessed as degradation of PB2 expression at 10 ug/ml incubated for 24 hrs by Western blotting analysis; assay type: cell-based; conditions: dose 10.0 µg/ml
[40] = molecular target: T3, von Hippel-Lindau disease tumor suppressor/Polymerase basic protein 1 (Influenza A virus (strain A/Puerto Rico/8/1934 H1N1)); experiment: PROTAC activity at Influenza A virus A/WSN/33(H1N1) flag tagged Polymerase basic protein 1/VHL (unknown origin) expressed in HEK293T cells assessed as degradation of PB1 expression at 10 ug/ml incubated for 24 hrs by Western blotting analysis; assay type: cell-based; conditions: dose 10.0 µg/ml
[41] = molecular target: T3, von Hippel-Lindau disease tumor suppressor/Polymerase basic protein 1 (Influenza A virus (strain A/Puerto Rico/8/1934 H1N1)); experiment: PROTAC activity at Influenza A virus A/WSN/33(H1N1) flag tagged Polymerase basic protein 1/VHL (unknown origin) expressed in HEK293T cells assessed as degradation of PB1 expression at 0.1 to 10 uM incubated for 24 hrs by Western blotting analysis; assay type: cell-based; conditions: dose 0.1-10 µM

T3 sequence (P03431 whole entry, looked up): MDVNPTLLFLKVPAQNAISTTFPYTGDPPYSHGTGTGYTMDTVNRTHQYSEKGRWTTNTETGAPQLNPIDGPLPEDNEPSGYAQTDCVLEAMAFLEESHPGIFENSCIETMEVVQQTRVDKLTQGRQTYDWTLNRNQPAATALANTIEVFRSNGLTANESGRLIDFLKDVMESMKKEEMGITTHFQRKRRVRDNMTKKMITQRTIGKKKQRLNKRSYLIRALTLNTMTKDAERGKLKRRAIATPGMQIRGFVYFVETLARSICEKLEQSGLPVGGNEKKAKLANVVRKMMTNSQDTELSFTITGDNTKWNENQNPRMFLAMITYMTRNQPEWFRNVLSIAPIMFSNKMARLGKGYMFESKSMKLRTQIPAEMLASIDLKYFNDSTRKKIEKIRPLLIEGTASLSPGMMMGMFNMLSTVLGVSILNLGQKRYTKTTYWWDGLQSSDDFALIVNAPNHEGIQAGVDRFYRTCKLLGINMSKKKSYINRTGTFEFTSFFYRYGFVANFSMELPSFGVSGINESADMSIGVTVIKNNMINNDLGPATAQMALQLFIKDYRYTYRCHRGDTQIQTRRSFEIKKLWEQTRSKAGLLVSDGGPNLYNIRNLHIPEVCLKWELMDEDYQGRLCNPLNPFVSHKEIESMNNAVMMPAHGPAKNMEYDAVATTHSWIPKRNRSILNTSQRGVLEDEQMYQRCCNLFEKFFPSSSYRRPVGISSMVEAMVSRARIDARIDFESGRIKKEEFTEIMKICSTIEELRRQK
T3 sequence (P40337 whole entry, looked up): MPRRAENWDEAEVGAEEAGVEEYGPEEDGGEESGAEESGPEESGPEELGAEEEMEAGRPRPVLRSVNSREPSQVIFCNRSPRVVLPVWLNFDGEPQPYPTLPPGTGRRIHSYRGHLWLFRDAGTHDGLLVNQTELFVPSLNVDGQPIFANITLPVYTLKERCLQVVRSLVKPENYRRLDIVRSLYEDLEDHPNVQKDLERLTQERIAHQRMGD
T2 sequence (P03428 whole entry, looked up): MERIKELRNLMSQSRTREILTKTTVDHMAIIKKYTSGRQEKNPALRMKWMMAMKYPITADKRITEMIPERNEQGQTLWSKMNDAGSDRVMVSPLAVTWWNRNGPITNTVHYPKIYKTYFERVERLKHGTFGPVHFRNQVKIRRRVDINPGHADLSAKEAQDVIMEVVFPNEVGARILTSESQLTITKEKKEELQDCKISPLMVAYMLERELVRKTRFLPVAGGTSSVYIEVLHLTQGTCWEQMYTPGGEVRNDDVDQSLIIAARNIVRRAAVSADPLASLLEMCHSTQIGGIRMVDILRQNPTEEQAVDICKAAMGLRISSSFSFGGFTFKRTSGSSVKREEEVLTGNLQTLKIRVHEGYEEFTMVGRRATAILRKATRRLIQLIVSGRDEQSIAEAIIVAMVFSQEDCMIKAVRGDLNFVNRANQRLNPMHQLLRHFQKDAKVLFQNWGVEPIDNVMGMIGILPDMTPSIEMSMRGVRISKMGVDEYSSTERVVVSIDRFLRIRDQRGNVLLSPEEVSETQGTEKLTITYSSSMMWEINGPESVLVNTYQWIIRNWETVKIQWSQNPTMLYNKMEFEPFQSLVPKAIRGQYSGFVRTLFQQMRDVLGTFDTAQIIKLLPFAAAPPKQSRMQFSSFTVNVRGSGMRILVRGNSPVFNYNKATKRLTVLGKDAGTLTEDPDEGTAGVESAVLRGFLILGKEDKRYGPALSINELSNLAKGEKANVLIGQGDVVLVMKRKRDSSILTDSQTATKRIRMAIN
T2 sequence (P40337 whole entry, looked up): as the sequence (P40337 whole entry, looked up) above

CCOC(=O)C1=C[C@@H](OC(CC)CC)[C@H](NC(C)=O)[C@@H](N)C1 [OSELTAMIVIR]
CC50 at 48 h [1]: > 200000 nM
Activity (Influenza A virus [2]): 44%

CC(C)(C)c1ccc(C(=O)NC(=S)Nc2ccc(N)cc2)cc1
Activity [3]: inactive
CLint scaled [4]: 11.6 mL/min/kg
CLint scaled [5]: 249 mL/min/kg
EC50 (Influenza B virus [6]): 167 nM
EC50 (Influenza B virus [7]): 151 nM
hepatic extraction ratio at 0.75 h [8]: 0.735
inhibition at 0.0016 µM (Influenza A virus [9]): 18%
CC50 at 48 h [10]: 72300 nM
CC50 at 48 h [1]: > 200000 nM
remaining at 0.5 h [11]: 104%
EC50 (Influenza A virus [12]): 24 nM
remaining at 2 h [13]: 112%
remaining at 1 h [14]: 113%
EC50 (Influenza A virus [15]): > 10000 nM
CLhep predicted [16]: 7.43 mL/min/kg
remaining at 5 min [17]: 101%
remaining at 0.25 h [18]: 102%
CLhep predicted [19]: 66.1 mL/min/kg
EC50 (Influenza A virus [20]): 332 nM
half-life [21]: 21.9 min
Kd [22]: 487000 nM
selectivity ratio [23]: 218
CLhep predicted [24]: 22 mL/min/kg
hepatic extraction ratio at 0.75 h [25]: 0.712
half-life [26]: 138 min
Stability [27]: 100%
CLint scaled [28]: 76.5 mL/min/kg
half-life [29]: 26.1 min
hepatic extraction ratio at 0.75 h [30]: 0.359
Activity (Influenza A virus [31]): Active

O=C1c2c(O)c(=O)ccn2N([C@@H]2c3ccccc3SCc3c2ccc(F)c3F)[C@@H]2COCCN12 [BALOXAVIR]
EC50 (Influenza B virus [6]): 6 nM
inhibition at 0.0008 µM (Influenza A virus [32]): 21%
EC50 (Influenza B virus [7]): 71 nM
CC50 at 48 h [10]: 63100 nM
CC50 at 48 h [1]: 30900 nM
EC50 (Influenza A virus [15]): 5 nM
EC50 (Influenza A virus [20]): 4 nM
selectivity ratio [23]: 16600
IC50 (Influenza A virus [33]): 1.49 nM
Activity (Influenza A virus [31]): Active

CC(C)(C)OC(=O)NCCCC[C@H](NC(=O)OC(C)(C)C)C(=O)NCCCCCCCCC(=O)Nc1ccc(NC(=S)NC(=O)c2ccc(C(C)(C)C)cc2)cc1
EC50 (Influenza B virus [6]): 167 nM
EC50 (Influenza B virus [7]): 130 nM
Activity [34]: inactive
CC50 at 48 h [10]: > 100000 nM
DC50 [35]: 650 nM
Activity [36]: Active
EC50 (Influenza A virus [15]): > 10000 nM
Activity [37]: inactive
Activity [38]: inactive
Activity [39]: inactive
EC50 (Influenza A virus [20]): 21 nM
selectivity ratio [23]: > 4760
Activity [40]: inactive
Activity [41]: inactive
